Measurements: ChEMBL document CHEMBL1127201, “Biological activity of 3-aminopropyl (methyl) phosphinic acid, a potent and selective GABAB agonist with CNS activity” (Bioorg Med Chem Lett, 1993)

Biological target: GABA B receptor (Rattus norvegicus, UniProt O88871+Q9Z0U4)
Assay: In vitro displacement of [3H]GABA from Gamma-aminobutyric acid type B receptor sites in rat brain membranes
Type: cell membranes

Sequence of GABA B receptor (Q9Z0U4 whole entry): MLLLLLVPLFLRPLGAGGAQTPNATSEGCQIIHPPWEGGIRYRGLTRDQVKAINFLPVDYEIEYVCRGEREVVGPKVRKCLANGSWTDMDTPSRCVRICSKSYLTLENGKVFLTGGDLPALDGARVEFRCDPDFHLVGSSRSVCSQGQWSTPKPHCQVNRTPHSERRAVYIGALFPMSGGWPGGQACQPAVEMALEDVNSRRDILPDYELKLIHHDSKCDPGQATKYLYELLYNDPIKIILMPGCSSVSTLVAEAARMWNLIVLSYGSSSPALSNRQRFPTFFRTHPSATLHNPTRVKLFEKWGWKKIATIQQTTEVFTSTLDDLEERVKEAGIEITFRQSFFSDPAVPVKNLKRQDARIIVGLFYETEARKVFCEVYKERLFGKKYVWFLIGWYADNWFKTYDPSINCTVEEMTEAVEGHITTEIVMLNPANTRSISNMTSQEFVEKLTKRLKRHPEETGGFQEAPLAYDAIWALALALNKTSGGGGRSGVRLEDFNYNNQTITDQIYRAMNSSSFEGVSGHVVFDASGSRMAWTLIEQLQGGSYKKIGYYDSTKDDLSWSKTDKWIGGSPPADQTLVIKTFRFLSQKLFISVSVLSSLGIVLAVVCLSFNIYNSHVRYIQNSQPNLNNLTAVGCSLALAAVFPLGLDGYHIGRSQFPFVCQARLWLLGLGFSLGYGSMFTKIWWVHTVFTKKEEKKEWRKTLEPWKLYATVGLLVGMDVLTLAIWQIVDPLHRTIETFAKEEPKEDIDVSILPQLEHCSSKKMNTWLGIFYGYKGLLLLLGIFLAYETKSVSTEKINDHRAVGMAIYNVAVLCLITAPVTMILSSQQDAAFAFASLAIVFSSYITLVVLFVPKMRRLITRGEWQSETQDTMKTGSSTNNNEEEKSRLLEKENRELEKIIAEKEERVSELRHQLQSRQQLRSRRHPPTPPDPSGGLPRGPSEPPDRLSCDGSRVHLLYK
Sequence of GABA B receptor (O88871 whole entry): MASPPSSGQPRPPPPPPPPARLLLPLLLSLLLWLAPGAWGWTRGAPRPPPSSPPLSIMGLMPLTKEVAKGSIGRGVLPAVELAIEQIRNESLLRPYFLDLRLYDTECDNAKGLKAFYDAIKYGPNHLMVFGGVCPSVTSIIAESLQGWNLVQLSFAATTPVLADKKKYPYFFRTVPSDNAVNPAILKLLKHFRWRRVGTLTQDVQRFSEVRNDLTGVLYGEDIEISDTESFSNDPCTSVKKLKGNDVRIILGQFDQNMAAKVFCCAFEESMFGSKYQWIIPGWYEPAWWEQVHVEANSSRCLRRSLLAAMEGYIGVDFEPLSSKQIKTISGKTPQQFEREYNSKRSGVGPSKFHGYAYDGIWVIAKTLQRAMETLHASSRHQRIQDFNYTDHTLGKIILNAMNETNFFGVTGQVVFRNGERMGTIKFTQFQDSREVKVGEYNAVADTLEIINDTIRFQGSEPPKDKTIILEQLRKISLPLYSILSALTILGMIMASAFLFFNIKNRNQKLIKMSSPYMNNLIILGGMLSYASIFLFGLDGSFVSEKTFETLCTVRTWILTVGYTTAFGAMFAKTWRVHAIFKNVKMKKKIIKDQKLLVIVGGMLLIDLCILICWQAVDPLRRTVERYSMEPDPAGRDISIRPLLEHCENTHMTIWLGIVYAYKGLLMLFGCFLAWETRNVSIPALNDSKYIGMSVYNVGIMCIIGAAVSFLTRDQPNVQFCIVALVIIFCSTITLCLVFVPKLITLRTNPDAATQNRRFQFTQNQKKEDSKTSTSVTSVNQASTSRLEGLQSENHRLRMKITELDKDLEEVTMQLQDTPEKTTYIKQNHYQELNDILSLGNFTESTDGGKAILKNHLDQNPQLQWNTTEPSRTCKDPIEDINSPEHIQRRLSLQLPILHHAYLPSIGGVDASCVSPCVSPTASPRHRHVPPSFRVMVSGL

Row | SMILES | IC50 [µM]
1 | NCCCP(=O)(O)O | 2
2 | NCCCS(=O)(=O)O [TRAMIPROSATE] | 2
3 | CCOC(OCC)P(=O)(O)CCCN | 2.5
4 | NCCC[PH](=O)O | 0.003
5 | NCCOP(=O)(O)O [PHOSPHORYLETHANOLAMINE] | > 100
6 | CCP(=O)(O)CCCN | 3
7 | NCCOS(=O)(=O)O | > 100
8 | CCCCCCP(=O)(O)CCCN | 1
